The record followed here is patent publication US8916702B2 (priority 2012, dated 2014).

Read-outs that look alike come from different tables or passages of the source. Some results are limits rather than exact numbers.

The assay has as its system HCV pseudoparticles (genotype 1a HCV E1 and E2 envelope, H77C isolate). The assay is described as follows: microbe, parasite or virus in culture. The assay is classed as cell-based. The following applies: Hepatitis C virus.
The mark [1] stands for this setting: Huh-7, 48 h, read-out: Activity (EC50 class), HCV pseudoparticle infection of Huh7 cells, luciferase 2 days after infection, EC50 expressed as class A/B.
The mark [2] stands for this setting: Huh-7, read-out: Activity (EC50 class), HCV pseudoparticles (genotype 1a, H77C) in Huh7 cells, EC50 expressed as class A/B.
Setting [3] is: Huh-7, 48 h, read-out: Activity (EC50 class), HCV pseudoparticles, Huh7 cells, luciferase 2 days after infection, average of duplicates.
[4] abbreviates: Huh-7, 48 h, HCV pseudoparticle infection of Huh7 cells, luciferase 2 days after infection, average of duplicates.
Where [5] appears, read: Huh-7, 48 h, HCV pseudoparticles (genotype 1a, H77C) in Huh7 cells, average of duplicate, luciferase 2 days after infection.

The term EC50 denotes the concentration at which the effect is half-maximal.

Turning to `C[C@]12C3C1[C@H]3C[C@@H]2NC(=O)C(=O)NCC[C@H](NC(=O)c1ccc(Nc2nc(NC3(c4ccc(Cl)cc4)CC3)nc(OCC(F)(F)F)n2)cc1)C(=O)O` (some centres unmarked) [Compound 1117], the EC50 under setting [1] fell in the range of 0.01 to 10 nM.

Turning to `CC(C)(CNC(=O)C(=O)Nc1ccc(Cl)cc1C(N)=O)CNC(=O)c1ccc(Nc2nc(NC3(c4ccc(Cl)cc4)CC3)nc(OCC(F)(F)F)n2)cc1` [Compound 3110], the EC50 under setting [2] was in the range of 0.01 to 10 nM.

`CC(C)(CNC(=O)C(=O)Nc1cccc(C(=O)O)c1)CNC(=O)c1ccc(Nc2nc(NC3(c4ccc(Cl)cc4)CC3)nc(OCC(F)(F)F)n2)cc1` [Compound 1485]: the EC50 under setting [1] was in the range of 0.01 to 10 nM.

With `CC(C)(CNC(=O)C(=O)Nc1nc2c(O)cccc2s1)CNC(=O)c1ccc(Nc2nc(NC3(c4ccc(Cl)cc4)CC3)nc(OCC(F)(F)F)n2)cc1` [Compound 3819], the EC50 under setting [3] lay within 0.01 to 10 nM.

With `O=C(Nc1ccccc1)C(=O)N1CCCC(CNC(=O)c2ccc(Nc3nc(NC4(c5ccc(Cl)cc5)CC4)nc(OCC(F)(F)F)n3)cc2)C1` (centres unmarked) [Compound 3488], the concentration giving a half-maximal response (EC50) under setting [2] fell in the range of 0.01 to 10 nM.

In the case of `COC(=O)[C@H](CCNC(=O)C(=O)Nc1ccc(-n2cnnn2)cc1)NC(=O)c1ccc(Nc2nc(NC3(c4ccc(Cl)cc4)CC3)nc(OCC(F)(F)F)n2)cc1` [Compound 3308], the EC50 under setting [2] fell in the range of 0.01 to 10 nM.

Turning to `COC(=O)[C@H](CCNC(=O)C(=O)Nc1ccc(-c2ccccc2)cc1)NC(=O)c1ccc(Nc2nc(NC3(c4ccc(Cl)cc4)CC3)nc(OCC(F)(F)F)n2)cc1` [Compound 1524], the EC50 under setting [1] fell in the range of 0.01 to 10 nM.

As for `COC(=O)[C@H](CCNC(=O)C(=O)Nc1cc(F)c(F)c(F)c1)NC(=O)c1ccc(Nc2nc(NC3(c4ccc(Cl)cc4)CC3)nc(OCC(F)(F)F)n2)cc1` [Compound 1504], the EC50 is under 2.54 nM under setting [4] and 0.01 to 10 nM under setting [1].

On to `COC(=O)[C@H](CCNC(=O)C(=O)NC1CCC(S(C)(=O)=O)CC1)NC(=O)c1ccc(Nc2nc(NC3(c4ccc(Cl)cc4)CC3)nc(OCC(F)(F)F)n2)cc1` (some centres unmarked) [Compound 3119], for which the concentration giving a half-maximal response (EC50) under setting [2] is 0.01 to 10 nM.

`COc1cccc(CNC(=O)C(=O)NC[C@H](NC(=O)c2ccc(Nc3nc(NC4(c5ccc(Cl)cc5)CC4)nc(OCC(F)(F)F)n3)cc2)C(=O)O)c1` [Compound 1193]: the EC50 is 0.52 nM under setting [4] and 0.01 to 10 nM under setting [1].

For the molecule `CC(C)(CNC(=O)C(N)=O)CNC(=O)c1ccc(Nc2nc(NC3(c4ccccc4)CC3)nc(OCC(F)(F)F)n2)cc1` [Compound 3244], the EC50 reads like this: under setting [5], 0.07 nM; under setting [2], 0.01 to 10 nM.

For the molecule `O=C(NCC[C@H](NC(=O)c1ccc(Nc2nc(NC3(c4ccc(Cl)cc4)CC3)nc(OCC(F)(F)F)n2)cc1)C(=O)O)C(=O)NCC1CCCCC1` [Compound 1181], under setting [1], the EC50 was in the range of 0.01 to 10 nM.

As for `CC(C)(CNC(=O)C(=O)Nc1ccc(OC(F)F)cc1)CNC(=O)c1ccc(Nc2nc(NC3(c4ccc(Cl)cc4)CC3)nc(OCC(F)(F)F)n2)cc1` [Compound 3146], the EC50 reads like this: under setting [5], 0.05 nM; under setting [2], 0.01 to 10 nM.

As to `COC(=O)[C@H](CNC(=O)C(=O)N[C@H]1C[C@H](C)CC[C@H]1C(C)C)NC(=O)c1ccc(Nc2nc(NC3(c4ccc(Cl)cc4)CC3)nc(OCC(F)(F)F)n2)cc1` [Compound 1067], under setting [1], the EC50 fell in the range of 0.01 to 10 nM.

Turning to `CCOC(=O)[C@H](CCNC(=O)C(=O)N(C)C)NC(=O)c1ccc(Nc2nc(NC3(c4ccc(Cl)cc4)CC3)nc(OCC(F)(F)F)n2)cc1` [Compound 1026, (S)-ethyl 2-(4-(4-(1-(4-chlorophenyl)cyclopropylamino)-6-(2,2,2-trifluoroethoxy)-1,3,5-triazin-2-ylamino)benzamido)-4-(2-(dimethylamino)-2-oxoacetamido)butanoate], the EC50 by setting is: under setting [4], 2.68 nM; under setting [1], 0.01 to 10 nM.

As to `COC(=O)[C@H](CNC(=O)C(=O)NCCn1cccn1)NC(=O)c1ccc(Nc2nc(NC3(c4ccc(Cl)cc4)CC3)nc(OCC(F)(F)F)n2)cc1` [Compound 1300], the EC50 under setting [1] was in the range of 0.01 to 10 nM.

As for `O=C(NCC[C@H](NC(=O)c1ccc(Nc2nc(NC3(c4ccc(Cl)cc4)CC3)nc(OCC(F)(F)F)n2)cc1)C(=O)O)C(=O)Nc1cccc(Oc2ccccc2)c1` [Compound 3620], the EC50 under setting [3] is 0.01 to 10 nM.

`COC(=O)[C@H](CNC(=O)C(=O)Nc1ccc(OCCN(C)C)nc1)NC(=O)c1ccc(Nc2nc(NC3(c4ccc(Cl)cc4)CC3)nc(OCC(F)(F)F)n2)cc1` [Compound 3735]: under setting [3], the EC50 lay in the range of 0.01 to 10 nM.

As for `O=C(NC[C@H](NC(=O)c1ccc(Nc2nc(NC3(c4ccc(Cl)cc4)CC3)nc(OCC(F)(F)F)n2)cc1)C(=O)O)C(=O)Nc1ccc(Oc2cccnc2)nc1` [Compound 3755], under setting [3], the EC50 lay within 0.01 to 10 nM.

As for `COC(=O)[C@H](CCNC(=O)C(=O)Nc1ccc(C2CCCCC2)cc1)NC(=O)c1ccc(Nc2nc(NC3(c4ccc(Cl)cc4)CC3)nc(OCC(F)(F)F)n2)cc1` [Compound 3111], the EC50 under setting [2] fell in the range of 0.01 to 10 nM.

For `O=C(NCC[C@H](NC(=O)c1ccc(Nc2nc(NC3(c4ccc(Cl)cc4)CC3)nc(OCC(F)(F)F)n2)cc1)C(=O)O)C(=O)NC1(Cc2ccccc2)CC1` [Compound 1346], the EC50 under setting [1] lay within 0.01 to 10 nM.

On to `COc1ccc(NC(=O)C(=O)NC[C@H](NC(=O)c2ccc(Nc3nc(NC4(c5ccc(Cl)cc5)CC4)nc(OCC(F)(F)F)n3)cc2)C(=O)O)cn1` [Compound 1349], for which the concentration giving a half-maximal response (EC50) under setting [1] is 0.01 to 10 nM.

As to `CCc1cccc(NC(=O)C(=O)NCC(C)(C)CNC(=O)c2ccc(Nc3nc(NC4(c5ccc(Cl)cc5)CC4)nc(OCC(F)(F)F)n3)cc2)c1` [Compound 1591], the EC50 under setting [1] fell in the range of 0.01 to 10 nM.

With `COC(=O)[C@H](CNC(=O)C(=O)NCc1cccc(OC)c1)NC(=O)c1ccc(Nc2nc(NC3(c4ccc(Cl)cc4)CC3)nc(OCC(F)(F)F)n2)cc1` [Compound 1151], the EC50 is, setting by setting: under setting [4], 1.62 nM; under setting [1], 0.01 to 10 nM.

Consider `Cc1cc(NC(=O)C(=O)NCC(C)(C)CNC(=O)c2ccc(Nc3nc(NC4(c5ccc(Cl)cc5)CC4)nc(OCC(F)(F)F)n3)cc2)ccc1F` [Compound 3060], for which, under setting [2], the EC50 was 0.01 to 10 nM.

Regarding `O=C(NC/C(=N/C(=O)c1ccc(Nc2nc(NC3(c4ccc(Cl)cc4)CC3)nc(OCC(F)(F)F)n2)cc1)C(=O)O)C(=O)Nc1ccc(-c2nnco2)cc1` [Compound 3161], the EC50 under setting [2] was in the range of 0.01 to 10 nM.

Take `O=C(NC/C(=N/C(=O)c1ccc(Nc2nc(NC3(c4ccc(Cl)cc4)CC3)nc(OCC(F)(F)F)n2)cc1)C(=O)O)C(=O)Nc1ccc(Cc2ccncc2)cc1` [Compound 3162]: the EC50 under setting [2] lay within 0.01 to 10 nM.

Take `CC(C)(CNC(=O)C(=O)Nc1cc(F)cc(F)c1)CNC(=O)c1ccc(Nc2nc(NC3(c4ccc(Cl)cc4)CC3)nc(OCC(F)(F)F)n2)cc1` [Compound 1540]: the EC50 under setting [1] lay within 0.01 to 10 nM.

`CC(C)(CNC(=O)C(=O)Nc1cccc(Oc2ccccc2)c1)CNC(=O)c1ccc(Nc2nc(NC3(c4ccc(Cl)cc4)CC3)nc(OCC(F)(F)F)n2)cc1` [Compound 3667]: the EC50 under setting [3] was in the range of 0.01 to 10 nM.

With `COC(=O)[C@H](CCNC(=O)C(=O)Nc1ccc(OC(F)(F)F)cc1)NC(=O)c1ccc(Nc2nc(NC3(c4ccc(Cl)cc4)CC3)nc(OCC(F)(F)F)n2)cc1` [Compound 3331], the EC50 under setting [2] lay within 0.01 to 10 nM.

Regarding `COC(=O)C(CNC(=O)C(=O)NC1CC(C)(C)CC(C)(C)C1)NC(=O)c1ccc(Nc2nc(NC3(c4ccc(Cl)cc4)CC3)nc(OCC(F)(F)F)n2)cc1` (centres unmarked) [Compound 1047], the EC50 under setting [1] lay within 0.01 to 10 nM.

With `COC(=O)[C@H](CCNC(=O)C(=O)Nc1ccc(Cc2ccncc2)cc1)NC(=O)c1ccc(Nc2nc(NC3(c4ccc(Cl)cc4)CC3)nc(OCC(F)(F)F)n2)cc1` [Compound 3123], the EC50 under setting [2] fell in the range of 0.01 to 10 nM.
